According to PubChem BioAssay (NCI):
Where “and” joins values, the source holds several entries; their conditions need not be identical. Identical values can stand only once.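 Compound exposure: 48 hours, 5 concentrations, 96-well plates. GI50 is the concentration that inhibits growth by half. The concentration for full growth arrest is given as TGI.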

Legend:
Test in all cases: NCI anticancer screen, dose series, 48 h
NCI-H226 lung = system: NCI-H226 lung
CCRF-CEM leukemia = system: CCRF-CEM leukemia
NCI-H460 lung = system: NCI-H460 lung
SF-539 CNS = system: SF-539 CNS
ACHN renal = system: ACHN renal
HOP-92 NSCLC = system: HOP-92 NSCLC
NCI-H23 lung = system: NCI-H23 lung
UACC-257 melanoma = system: UACC-257 melanoma
MALME-3M melanoma = system: MALME-3M melanoma
HT29 colon = system: HT29 colon

| Compound | GI50 (NCI-H226 lung) | TGI (NCI-H226 lung) [µM] | GI50 (CCRF-CEM leukemia) | TGI (CCRF-CEM leukemia) [µM] | GI50 (NCI-H460 lung) | TGI (NCI-H460 lung) [µM] | GI50 (SF-539 CNS) | TGI (SF-539 CNS) | GI50 (ACHN renal) | TGI (ACHN renal) [µM] | GI50 (HOP-92 NSCLC) | TGI (HOP-92 NSCLC) | GI50 (NCI-H23 lung) | TGI (NCI-H23 lung) | GI50 (UACC-257 melanoma) | TGI (UACC-257 melanoma) | GI50 (MALME-3M melanoma) | TGI (MALME-3M melanoma) | GI50 (HT29 colon) | TGI (HT29 colon) |
| --- | --- | --- | --- | --- | --- | --- | --- | --- | --- | --- | --- | --- | --- | --- | --- | --- | --- | --- | --- | --- |
| COc1ccc(-c2cnoc2-c2cc(OC)c3c(c2)OCCO3)cc1 | 0.738 µM | > 94.4 | 0.0379 µM | > 100 | 0.0327 µM | 12.8 | 0.0235 µM | 0.0907 µM | 0.108 µM | > 58.9 | 0.281 µM | 41.7 µM | 0.0599 µM | > 100 µM | 11.5 µM | > 100 µM | 39.8 µM | > 100 µM | 0.0331 µM | 20.8 µM |
| Cc1c(C)c(CC(=O)N2CC2)c(C)c(C)c1CC(=O)N1CC1 | – | 43.6 | – | > 48.8 | – | 50.2 | – | 16.5 µM | – | 25.7 | – | 44.9 µM | – | 39.4 µM | – | 50 µM | – | 27.1 µM | – | > 75.1 µM |
| COc1ccc(C2=C(N3CCc4ccccc43)C(=O)NC2=O)cc1 | > 25 µM | > 25 | 2.73 µM | > 11.7 | > 25 µM | > 25 | > 25 µM | > 25 µM | > 25 µM | > 25 | 0.642 µM | 19.7 µM | > 25 µM | > 25 µM | > 25 µM | > 25 µM | > 25 µM | > 25 µM | > 25 µM | > 25 µM |
| N#C/C(=C1\SC(N=Nc2ccc(Cl)cc2)C(=O)N1c1ccccc1)c1nc2ccccc2[nH]1 (stereo not given) | – | 77.2 | – | 47.4 | – | > 100 | – | > 100 µM | – | > 100 | – | 51.9 µM | – | 65.8 µM | – | 92.6 µM | – | 99.1 µM | – | > 100 µM |
| Clc1ccc2c(c1)N(c1ncnc3ccc(-c4cnc5[nH]ncc5c4)cc13)CC2 | 0.896 µM | > 100 | 0.547 µM | > 100 | 0.463 µM | > 100 | 0.645 µM | > 100 µM | 0.317 µM | > 100 | 0.169 µM | > 100 µM | 2.68 µM | > 100 µM | > 100 µM | > 100 µM | 1.12 µM | > 100 µM | 0.344 µM | > 100 µM |
| COc1ccc(Nc2nccc(N3CCN(c4c5ccc(Cl)cc5nc5ccc(OC)cc45)CC3)n2)cc1 | 29.7 µM | > 100 | 2.77 µM | > 100 | 8.13 µM | > 100 | 22.7 µM | > 100 µM | 6.86 µM | > 100 | 3.55 µM | 77.1 µM | 22.7 µM | > 100 µM | > 100 µM | > 100 µM | 92 µM | > 100 µM | 6.61 µM | > 100 µM |
| COc1ccc(C(=O)c2nc3ccccc3n2CC(=O)c2ccc(Cl)cc2)cc1 | > 28.4 µM | > 100 | 2.24 µM | > 26.4 | 7.34 µM | > 100 | 2.85 µM | > 30.5 µM | 6.4 µM | > 100 | > 100 µM | > 100 µM | 4.61 µM | > 100 µM | > 23.6 µM | > 100 µM | 1.92 µM | > 100 µM | 2.82 µM | > 100 µM |
| O=c1[nH]c2cc([N+](=O)[O-])ccc2nc1/C(=N\Nc1ccccc1)C(O)c1ccc2c(c1)OCO2 (stereo not given) | – | > 100 | – | > 100 | – | > 100 | – | > 100 µM | – | > 100 | – | 42.7 µM | – | > 100 µM | – | > 100 µM | – | > 100 µM | – | > 100 µM |
| COc1ccccc1NC(=O)/C(=C/c1ccccc1)C(C)=O | – | > 100 | – | > 100 | – | > 100 | – | 62 µM | – | > 100 | – | > 100 µM | – | 65.7 µM | – | > 100 µM | – | > 100 µM | – | > 100 µM |
| C=C1C(=O)C23C(O)C1CC[C@H]2C12CCCC(C)(COC(C)=O)[C@H]1[C@H](O)[C@]3(O)OC2 (stereo not given in full) | – | 5.7 | – | 1.16 | – | 6.36 | – | 3.07 µM | – | 3.32 | – | 3.02 µM | – | 3.53 µM | – | 3.67 µM | – | 3.01 µM | – | 3.36 µM |
| Cc1ccc(NC(=O)/C(Cc2cc(=O)oc3cc(O)ccc23)=N\NC(=O)C[N+](C)(C)C)cc1C | – | > 100 | – | > 100 | – | > 100 | – | > 100 µM | – | > 100 | – | > 100 µM | – | > 100 µM | – | > 100 µM | – | > 100 µM | – | > 100 µM |
| CC1(C)CC(=O)C(CC2C(=O)c3ccccc3C2=O)C(=O)C1 | – | > 100 | – | > 100 | – | > 100 | – | > 100 µM | – | > 100 | – | > 100 µM | – | > 100 µM | – | > 100 µM | – | > 100 µM | – | > 100 µM |
| Cc1ccccc1/C=C/C(=O)c1ccccc1 | – | 36.7 | – | 69.3 | – | 38.7 | – | 28.7 µM | – | 32.8 | – | 37.6 µM | – | 32.2 µM | – | 42.4 µM | – | 35 µM | – | 47.7 µM |
| C[C@]12C/C(=C/O)C(=O)C(O)=C1CC[C@@H]1C2CC[C@@]2(C)C1CC[C@@H]2O (stereo not given in full) | – | 36.8 | – | 47.5 | – | 48.1 | – | 34.2 µM | – | 72.2 | – | 46.4 µM | – | 40.3 µM | – | 62 µM | – | 46.2 µM | – | 65.1 µM |
| Cc1cccc(N=Nc2ccc(N=Nc3c(O)ccc4ccccc34)cc2C)c1 | – | > 100 | – | > 100 | – | > 100 | – | > 100 µM | – | > 100 | – | > 100 µM | – | > 100 µM | – | > 100 µM | – | 5.34 µM | – | > 100 µM |
| COc1ccc(F)c(F)c1C(=O)c1cnc(NC2CCN(S(C)(=O)=O)CC2)nc1N | 1.28 µM and 0.408 µM | > 24.4 | 0.431 µM and 0.237 µM | > 8.34 | 0.165 µM and 0.117 µM | > 100 | 0.536 µM and 0.406 µM | 3.13 µM and 3.07 µM | 0.439 µM and 0.272 µM | > 100 | 0.25 µM and 0.43 µM | 3.46 µM and 5.53 µM | 0.814 µM and 0.397 µM | 5.28 µM and 3.3 µM | 1.44 µM and 1.61 µM | 6.38 µM and 8.94 µM | 1.04 µM and 1.49 µM | 4.79 µM and 5.38 µM | 0.42 µM and 0.341 µM | 7.68 µM and > 9.06 µM |
